Assay results as given in ChEMBL document CHEMBL1201862, “PubChem BioAssay data set” (2004).
Calls of active or inactive are those of the source. Cut-off read from the data, not from the text of the source, for most assays here: actives have a measured EC50 and inactives only a lower limit.

Tests used:
[1] = biological target: Peroxisome proliferator-activated receptor gamma/Nuclear receptor coactivator 2 (Homo sapiens, UniProt P37231); format: functional;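 note: agonist potency for raising coactivator recruitment to the receptor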
[2] = biological target: Peroxisome proliferator-activated receptor gamma/Nuclear receptor coactivator 1 (Homo sapiens, UniProt P37231); format: functional;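 note: agonist potency as compounds enhance coactivator SRC-1 recruitment to PPARgamma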
[3] = biological target: Peroxisome proliferator-activated receptor gamma/Nuclear receptor coactivator 3 (Homo sapiens, UniProt P37231); format: functional;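 note: agonist potency for raising coactivator recruitment to the receptor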
[4] = inhibitors of firefly luciferase expression or activity, dose response, H4 neuroglioma cells, luminescence (AID 1990); format: functional, cell-based
[5] = luciferase reporter signal reduction – luminescence, H4-C neuroglioblastoma cells, dose response (AID 2458); format: functional, cell-based;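 note: H4 neuroglioblastoma cells stably carrying a luciferase reporter gene fusion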
[6] = biological target: T1, RNA-binding protein pos-1 (Caenorhabditis elegans, UniProt G5EF15); experiment: inhibitors of POS-1/mex-3 RNA binding, dose response, biochemical, fluorescence polarization (AID 1964);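 note: purified POS-1 fused to maltose binding protein made in E. coli; potency of compounds blocking POS-1 binding to fluorescent RNA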
T1 sequence (G5EF15 whole entry): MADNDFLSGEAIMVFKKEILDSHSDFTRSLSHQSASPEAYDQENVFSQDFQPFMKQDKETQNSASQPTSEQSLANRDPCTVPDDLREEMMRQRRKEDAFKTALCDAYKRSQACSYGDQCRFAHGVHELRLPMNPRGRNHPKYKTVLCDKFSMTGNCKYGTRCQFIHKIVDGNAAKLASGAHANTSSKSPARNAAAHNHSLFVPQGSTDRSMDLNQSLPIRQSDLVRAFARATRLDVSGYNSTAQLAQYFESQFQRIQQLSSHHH

[7] = test system: BJ; experiment: cytotoxicity toward BJ-TERT fibroblasts, dose response, cell-based, RAS-independent, luminescence (AID 1933); format: functional; settings: Homo sapiens
[8] = cells; format: functional, cell-based
[9] = Luminescence Cell-Based Dose Response HTS to Identify Inhibitors of 5'UTR Stem-Loop Driven Prion Protein mRNA Translation in H4 Neuroglioblastoma Cells. [Related pubchem assays: 1827 (Project Summary), 1813 (Primary HTS)]; format: functional
[10] = biological target: T2, Zinc finger protein mex-5 (Caenorhabditis elegans, UniProt Q9XUB2); experiment: MEX-5/TCR-2 RNA interaction inhibitors, dose response, biochemical, C. elegans, fluorescence polarization (AID 1960)
T2 sequence (Q9XUB2 whole entry): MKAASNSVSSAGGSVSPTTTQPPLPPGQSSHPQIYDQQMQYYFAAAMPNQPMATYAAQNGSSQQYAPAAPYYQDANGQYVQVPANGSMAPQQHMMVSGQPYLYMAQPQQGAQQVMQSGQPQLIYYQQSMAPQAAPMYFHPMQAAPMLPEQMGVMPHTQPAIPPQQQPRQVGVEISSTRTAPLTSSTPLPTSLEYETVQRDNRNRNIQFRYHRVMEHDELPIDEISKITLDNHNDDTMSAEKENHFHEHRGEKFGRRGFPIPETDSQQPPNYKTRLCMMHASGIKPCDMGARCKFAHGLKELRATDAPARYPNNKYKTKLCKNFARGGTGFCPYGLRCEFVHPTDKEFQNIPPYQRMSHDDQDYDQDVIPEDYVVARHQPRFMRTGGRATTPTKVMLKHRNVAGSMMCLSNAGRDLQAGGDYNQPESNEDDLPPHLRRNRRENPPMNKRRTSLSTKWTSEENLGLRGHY

[11] = inhibitors of SNCA 5'UTR-driven reporter translation, confirmation, H4 neuroglioma cells, luminescence (AID 1988); format: functional, cell-based
[12] = test system: BJ; experiment: cells; format: functional, cell-based; settings: Homo sapiens
[13] = Luminescence-based dose response cell-based high throughput screening assay for cytotoxic compounds using the IEC-6 intestinal epithelial cell line. [Related pubchem assays: 1858 (Summary AID.), 1825 (Counterscreen.), 1907 (Confirmation screen.)]; format: functional
[14] = biological target: T3, Kappa-type opioid receptor (Homo sapiens, UniProt P41145); format: functional
[15] = biological target: T4, Beta-galactosidase (Escherichia coli, UniProt Q8VNN2); format: functional
[16] = test system: BJ; experiment: cytotoxicity toward BJ-TERT-LT-ST fibroblasts, dose response, cell-based, RAS-independent, luminescence (AID 1935); format: functional; settings: Homo sapiens;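 note: BJ fibroblasts immortalized with TERT plus LT and ST oncogenes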
[17] = biological target: T3, Kappa-type opioid receptor; format: functional; remark: listed apart in the source
[18] = cytotoxicity toward DRD oncogenic fibroblasts, dose response, cell-based, non-viral oncogenic, luminescence (AID 1934); format: functional; settings: Homo sapiens
[19] = inhibitors of SNCA 5'UTR-driven translation, confirmation, luminescence, H4 neuroglioblastoma cells, dose confirmation (AID 2454); format: functional, cell-based;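 note: H4 neuroglioblastoma cells carrying an alpha-synuclein 5'UTR luciferase reporter; potency for inhibition of the luciferase signal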
[20] = biological target: Nonstructural protein 1 (Influenza A virus, UniProt Q194T2); format: functional, Influenza A virus (A/California/07/2009(H1N1))
[21] = biological target: Heat shock protein HSP 90-alpha (Homo sapiens, UniProt P07900); format: functional, organism-based
[22] = test system: BJ; experiment: cytotoxicity toward Ras-transformed BJeLR fibroblasts, dose response, cell-based, alamar blue fluorescence, cherrypicked samples (AID 2631); format: functional; settings: Homo sapiens;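 note: confirmatory dose-response assay in RAS-dependent BJ fibroblasts engineered with TERT, LT and ST, with cytotoxicity read by fluorescence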
[23] = biological target: T4, Beta-galactosidase; experiment: Dose response counterscreen for EBI2 assay utilizing the enzyme, b-galactosidase.; format: functional
[24] = biological target: Potassium voltage-gated channel subfamily KQT member 2 (Rattus norvegicus, UniProt O88943, W236L); experiment: KCNQ2 channel potentiators, dose response, mechanism study for KCNQ2 potentiator project, cell-based, automated electrophysiology (AID 2603); format: functional
[25] = biological target: T5, Replicative DNA helicase DnaB (Mycobacterium tuberculosis, UniProt P9WMR3); experiment: DnaB intein splicing inhibitors, dose response, biochemical, cell-free fluorescence (AID 449749); format: functional
T5 sequence (P9WMR3 whole entry): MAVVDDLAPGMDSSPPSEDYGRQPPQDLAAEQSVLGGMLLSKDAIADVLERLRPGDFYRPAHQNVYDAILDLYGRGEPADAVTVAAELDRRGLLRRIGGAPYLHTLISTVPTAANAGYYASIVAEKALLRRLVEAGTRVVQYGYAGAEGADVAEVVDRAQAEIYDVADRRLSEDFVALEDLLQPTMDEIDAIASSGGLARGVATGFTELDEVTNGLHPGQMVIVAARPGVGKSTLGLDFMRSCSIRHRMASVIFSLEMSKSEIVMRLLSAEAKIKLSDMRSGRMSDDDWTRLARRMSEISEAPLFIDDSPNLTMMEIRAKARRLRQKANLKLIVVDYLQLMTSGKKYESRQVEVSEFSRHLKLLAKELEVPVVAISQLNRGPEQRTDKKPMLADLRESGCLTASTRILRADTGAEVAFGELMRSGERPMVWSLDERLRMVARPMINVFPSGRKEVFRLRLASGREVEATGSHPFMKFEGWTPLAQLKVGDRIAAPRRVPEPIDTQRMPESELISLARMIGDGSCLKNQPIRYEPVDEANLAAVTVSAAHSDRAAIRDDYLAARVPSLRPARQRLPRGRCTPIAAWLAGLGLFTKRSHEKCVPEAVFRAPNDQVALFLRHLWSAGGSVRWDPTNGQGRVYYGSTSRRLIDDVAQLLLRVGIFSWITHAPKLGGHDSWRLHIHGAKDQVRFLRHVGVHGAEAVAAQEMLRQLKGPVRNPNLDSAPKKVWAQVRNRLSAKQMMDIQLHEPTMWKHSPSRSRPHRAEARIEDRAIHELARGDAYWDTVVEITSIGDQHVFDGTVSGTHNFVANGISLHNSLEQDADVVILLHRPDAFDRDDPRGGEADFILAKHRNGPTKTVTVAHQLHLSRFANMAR

[26] = biological target: T6, Protein RecA (Mycobacterium tuberculosis, UniProt P9WHJ3); experiment: Fluorescence Cell-Free Homogeneous Dose Retest to Identify Inhibitors of RecA-Intein Splicing Activity. [Related pubchem assays (depositor defined):AID2097, AID2223, AID489010, AID492950]; format: functional
T6 sequence (P9WHJ3 whole entry): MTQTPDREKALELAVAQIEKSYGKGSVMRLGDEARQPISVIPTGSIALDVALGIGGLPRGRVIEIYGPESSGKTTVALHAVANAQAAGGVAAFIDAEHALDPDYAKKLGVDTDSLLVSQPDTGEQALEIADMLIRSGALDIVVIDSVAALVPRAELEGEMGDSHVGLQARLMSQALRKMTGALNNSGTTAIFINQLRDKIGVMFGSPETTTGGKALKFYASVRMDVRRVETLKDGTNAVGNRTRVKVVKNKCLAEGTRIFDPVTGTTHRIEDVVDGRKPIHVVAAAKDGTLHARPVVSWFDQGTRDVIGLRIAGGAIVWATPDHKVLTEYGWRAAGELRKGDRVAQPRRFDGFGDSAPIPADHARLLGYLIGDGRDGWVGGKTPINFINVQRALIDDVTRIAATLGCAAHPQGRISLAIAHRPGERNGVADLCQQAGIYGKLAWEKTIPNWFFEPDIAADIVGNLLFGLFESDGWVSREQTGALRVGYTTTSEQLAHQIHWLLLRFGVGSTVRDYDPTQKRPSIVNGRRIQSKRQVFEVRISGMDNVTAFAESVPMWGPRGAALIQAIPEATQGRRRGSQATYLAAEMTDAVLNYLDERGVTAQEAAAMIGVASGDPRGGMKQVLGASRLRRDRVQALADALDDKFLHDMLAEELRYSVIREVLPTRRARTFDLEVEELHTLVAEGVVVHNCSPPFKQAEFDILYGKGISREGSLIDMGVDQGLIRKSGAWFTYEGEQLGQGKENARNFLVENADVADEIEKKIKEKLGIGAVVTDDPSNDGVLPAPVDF

[27] = biological target: Genome polyprotein (dengue virus type 2, UniProt P29990); experiment: Dengue-2 NS5 methyltransferase inhibitors, primary screen, biochemical, confirmation dose response (AID 588689); format: functional

Chain of Peroxisome proliferator-activated receptor gamma/Nuclear receptor coactivator 3 (P37231 whole entry): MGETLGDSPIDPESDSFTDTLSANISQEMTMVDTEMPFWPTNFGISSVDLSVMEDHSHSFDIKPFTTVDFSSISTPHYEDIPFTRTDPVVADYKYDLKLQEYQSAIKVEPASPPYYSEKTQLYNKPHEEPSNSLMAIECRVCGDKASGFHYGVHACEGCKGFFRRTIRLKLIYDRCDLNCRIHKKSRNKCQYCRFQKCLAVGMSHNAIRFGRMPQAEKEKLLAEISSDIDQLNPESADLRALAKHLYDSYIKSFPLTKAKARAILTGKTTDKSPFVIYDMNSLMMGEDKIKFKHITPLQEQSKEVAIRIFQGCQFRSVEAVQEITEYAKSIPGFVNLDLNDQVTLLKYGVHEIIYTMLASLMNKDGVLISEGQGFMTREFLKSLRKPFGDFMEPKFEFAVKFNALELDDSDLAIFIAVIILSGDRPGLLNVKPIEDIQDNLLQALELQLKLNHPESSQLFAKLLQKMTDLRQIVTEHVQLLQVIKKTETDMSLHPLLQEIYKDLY
Chain of Peroxisome proliferator-activated receptor gamma/Nuclear receptor coactivator 3 (Q9Y6Q9 whole entry, further chain): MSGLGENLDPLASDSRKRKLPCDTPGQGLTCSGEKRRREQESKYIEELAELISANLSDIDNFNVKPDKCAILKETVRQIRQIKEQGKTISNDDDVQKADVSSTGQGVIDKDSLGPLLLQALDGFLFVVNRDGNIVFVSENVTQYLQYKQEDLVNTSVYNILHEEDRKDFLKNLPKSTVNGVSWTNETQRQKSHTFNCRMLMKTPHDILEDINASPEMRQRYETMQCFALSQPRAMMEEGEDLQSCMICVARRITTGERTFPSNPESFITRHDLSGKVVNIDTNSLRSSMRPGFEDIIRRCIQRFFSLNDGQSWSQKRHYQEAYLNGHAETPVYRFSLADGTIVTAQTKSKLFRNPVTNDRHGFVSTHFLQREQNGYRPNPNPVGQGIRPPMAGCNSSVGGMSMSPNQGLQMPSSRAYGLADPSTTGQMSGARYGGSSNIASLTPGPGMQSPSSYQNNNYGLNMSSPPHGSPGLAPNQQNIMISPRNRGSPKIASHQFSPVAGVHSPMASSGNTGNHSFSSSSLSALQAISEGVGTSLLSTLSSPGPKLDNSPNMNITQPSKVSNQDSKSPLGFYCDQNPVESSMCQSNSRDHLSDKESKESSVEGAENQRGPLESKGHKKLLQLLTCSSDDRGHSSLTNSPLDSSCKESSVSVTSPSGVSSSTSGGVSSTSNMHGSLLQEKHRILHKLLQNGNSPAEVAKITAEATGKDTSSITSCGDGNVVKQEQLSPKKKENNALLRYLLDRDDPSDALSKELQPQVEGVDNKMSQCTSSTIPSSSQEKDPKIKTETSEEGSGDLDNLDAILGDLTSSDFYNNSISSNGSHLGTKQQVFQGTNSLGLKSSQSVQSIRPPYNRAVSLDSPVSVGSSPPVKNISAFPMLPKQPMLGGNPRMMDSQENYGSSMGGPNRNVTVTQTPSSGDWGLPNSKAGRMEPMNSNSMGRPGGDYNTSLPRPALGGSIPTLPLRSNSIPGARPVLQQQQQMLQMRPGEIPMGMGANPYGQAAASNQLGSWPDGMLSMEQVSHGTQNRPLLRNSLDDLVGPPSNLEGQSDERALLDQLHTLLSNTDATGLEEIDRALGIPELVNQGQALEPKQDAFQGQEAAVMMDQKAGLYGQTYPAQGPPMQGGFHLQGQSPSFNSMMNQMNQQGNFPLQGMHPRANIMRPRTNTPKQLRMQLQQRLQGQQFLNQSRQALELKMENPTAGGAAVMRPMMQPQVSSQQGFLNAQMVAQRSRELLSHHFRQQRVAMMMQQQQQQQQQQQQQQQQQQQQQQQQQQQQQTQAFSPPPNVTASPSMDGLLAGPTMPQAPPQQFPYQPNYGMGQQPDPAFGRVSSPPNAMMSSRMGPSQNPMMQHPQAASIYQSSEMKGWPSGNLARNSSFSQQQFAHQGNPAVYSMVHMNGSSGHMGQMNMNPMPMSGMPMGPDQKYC
Chain of Peroxisome proliferator-activated receptor gamma/Nuclear receptor coactivator 1 (P37231 whole entry): as the sequence (P37231 whole entry) above
Chain of Peroxisome proliferator-activated receptor gamma/Nuclear receptor coactivator 1 (Q15788 whole entry, further chain): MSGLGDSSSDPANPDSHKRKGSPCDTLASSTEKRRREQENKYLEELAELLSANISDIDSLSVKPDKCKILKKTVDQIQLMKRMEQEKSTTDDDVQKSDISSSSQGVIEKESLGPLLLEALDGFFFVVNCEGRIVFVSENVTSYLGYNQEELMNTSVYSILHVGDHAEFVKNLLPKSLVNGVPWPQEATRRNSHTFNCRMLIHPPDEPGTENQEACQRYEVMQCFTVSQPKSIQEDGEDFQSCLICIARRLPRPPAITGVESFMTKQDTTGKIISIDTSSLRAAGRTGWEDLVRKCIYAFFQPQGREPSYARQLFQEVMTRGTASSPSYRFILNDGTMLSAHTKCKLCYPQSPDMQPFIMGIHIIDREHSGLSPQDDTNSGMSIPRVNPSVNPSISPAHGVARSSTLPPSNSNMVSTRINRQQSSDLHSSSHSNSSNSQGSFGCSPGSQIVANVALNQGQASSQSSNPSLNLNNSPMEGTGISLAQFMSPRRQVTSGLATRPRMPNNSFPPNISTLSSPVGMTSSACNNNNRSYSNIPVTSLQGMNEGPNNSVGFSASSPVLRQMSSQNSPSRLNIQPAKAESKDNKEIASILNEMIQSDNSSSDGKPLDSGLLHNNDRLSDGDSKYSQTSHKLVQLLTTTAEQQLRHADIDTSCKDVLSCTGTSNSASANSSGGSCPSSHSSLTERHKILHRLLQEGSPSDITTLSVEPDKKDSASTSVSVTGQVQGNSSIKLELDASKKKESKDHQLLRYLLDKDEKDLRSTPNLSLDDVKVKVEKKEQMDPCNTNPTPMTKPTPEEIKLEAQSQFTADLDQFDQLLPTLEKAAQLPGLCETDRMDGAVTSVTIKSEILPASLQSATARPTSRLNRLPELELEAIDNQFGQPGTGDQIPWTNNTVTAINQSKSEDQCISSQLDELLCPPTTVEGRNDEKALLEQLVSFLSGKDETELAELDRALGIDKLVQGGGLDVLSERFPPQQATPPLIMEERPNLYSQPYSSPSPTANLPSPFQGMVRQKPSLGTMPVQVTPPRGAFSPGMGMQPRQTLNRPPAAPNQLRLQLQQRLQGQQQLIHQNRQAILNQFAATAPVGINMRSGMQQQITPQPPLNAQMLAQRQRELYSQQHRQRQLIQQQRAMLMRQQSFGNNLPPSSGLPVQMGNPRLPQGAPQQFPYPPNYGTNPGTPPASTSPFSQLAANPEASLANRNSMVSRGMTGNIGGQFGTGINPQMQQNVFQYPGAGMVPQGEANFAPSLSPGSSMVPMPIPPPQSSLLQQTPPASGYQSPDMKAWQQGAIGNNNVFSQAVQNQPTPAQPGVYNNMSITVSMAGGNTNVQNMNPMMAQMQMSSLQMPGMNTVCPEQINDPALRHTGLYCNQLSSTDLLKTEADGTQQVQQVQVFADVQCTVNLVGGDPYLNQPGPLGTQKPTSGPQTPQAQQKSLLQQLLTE
T3 sequence (P41145 whole entry): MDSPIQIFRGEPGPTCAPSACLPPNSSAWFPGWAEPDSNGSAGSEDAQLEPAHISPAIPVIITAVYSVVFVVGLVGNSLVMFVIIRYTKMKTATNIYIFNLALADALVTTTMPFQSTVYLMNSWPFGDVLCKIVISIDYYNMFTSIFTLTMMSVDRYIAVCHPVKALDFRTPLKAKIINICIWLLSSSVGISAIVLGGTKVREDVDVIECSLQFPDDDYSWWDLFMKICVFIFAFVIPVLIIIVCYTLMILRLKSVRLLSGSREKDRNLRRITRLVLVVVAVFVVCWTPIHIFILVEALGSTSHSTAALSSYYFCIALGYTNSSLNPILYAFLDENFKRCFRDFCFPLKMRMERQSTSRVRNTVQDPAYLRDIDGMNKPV
Chain of Nonstructural protein 1 (Q194T2 whole entry): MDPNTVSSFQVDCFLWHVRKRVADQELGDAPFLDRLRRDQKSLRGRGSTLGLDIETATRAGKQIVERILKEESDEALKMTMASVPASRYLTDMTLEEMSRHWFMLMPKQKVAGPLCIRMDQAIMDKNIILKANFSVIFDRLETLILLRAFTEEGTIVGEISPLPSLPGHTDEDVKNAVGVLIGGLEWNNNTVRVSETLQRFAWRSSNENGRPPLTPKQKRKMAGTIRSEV

Question: Which EC50 [1] does the source give for `O=C(CCSCc1ccccc1Cl)NCc1cccs1` here?
Answer: Its EC50 is > 79.4 µM (not active).

Question: What about the EC50 [2] of the same compound?
Answer: Its EC50 is > 79.4 µM (not active).

Question: What about the EC50 [3] of the same compound?
Answer: Its EC50 is > 79.4 µM (not active).

Question: Which EC50 [4] does the source give for `C/C(=N\Nc1ncnc2sc(C)c(C)c12)c1ccccn1` here?
Answer: Its EC50 is 0.244 µM (active).

Question: And the EC50 [5]?
Answer: The EC50 was 0.222 µM (active).

Question: What about the EC50 [6] of the same compound?
Answer: The EC50 was 23.3 µM (inconclusive).

Question: What about the EC50 [7] of the same compound?
Answer: Its EC50 is 0.711 µM (inconclusive).

Question: What about the EC50 [8] of the same compound?
Answer: The EC50 was 0.472 µM (active).

Question: What about the EC50 [9] of the same compound?
Answer: The EC50 was < 0.1 µM (active).

Question: And the EC50 [10]?
Answer: The EC50 was 46.7 µM (inconclusive).

Question: What about the EC50 [11] of the same compound?
Answer: Its EC50 is < 0.1 µM (active).

Question: What about the EC50 [12] of the same compound?
Answer: The EC50 was 0.966 µM (inconclusive).

Question: And the IC50 [13]?
Answer: The IC50 was 0.0762 µM (active).

Question: And the IC50 [14]?
Answer: The IC50 was > 31.5 µM (inactive).

Question: And the EC50 [15]?
Answer: Its EC50 is > 31.5 µM (inactive).

Question: What about the EC50 [16] of the same compound?
Answer: The EC50 was 0.754 µM (inconclusive).

Question: What about the IC50 [17] of the same compound?
Answer: Its IC50 is greater than 32 µM.

Question: And the EC50 [18]?
Answer: Its EC50 is 2.02 µM (inconclusive).

Question: What about the EC50 [19] of the same compound?
Answer: The EC50 was 0.378 µM (active).

Question: What about the IC50 [20] of the same compound?
Answer: Its IC50 is 19.3 µM (active).

Question: And the AC50 [21]?
Answer: Its AC50 is 2.42 µM (active).

Question: What about the EC50 [22] of the same compound?
Answer: Its EC50 is < 0.104 µM (active).

Question: And the IC50 [23]?
Answer: Its IC50 is > 80 µM (inactive).

Question: Which results are given for `O=c1cc(Cn2ccnc2)c2cc3c(cc2o1)CCC3`?
Answer: EC50 [1]: > 79.4 µM (not active); EC50 [2]: > 79.4 µM (not active); EC50 [3]: > 79.4 µM (not active)

Question: Which EC50 [24] does the source give for `Cc1oc2cc([N+](=O)[O-])c(O)c([N+](=O)[O-])c2c1C(=O)c1ccc(Cl)cc1` here?
Answer: Its EC50 is 555 µM (active).

Question: What about the AC50 [25] of the same compound?
Answer: The AC50 was 4.12 µM (active).

Question: What about the EC50 [26] of the same compound?
Answer: The EC50 was 10.4 µM (active).

Question: And the IC50 [27]?
Answer: The IC50 was 61.9 µM (active).
